According to patent US20220162561A1, “COMPOSITION FOR PROMOTING SECRETION OF EXTRACELLULAR VESICLES” (priority 2019, published 2022):

How the values were obtained:
Format in all cases: cell-based
[1] = test system: mesenchymal stem cells derived from human adipose tissue; assay: Test Example 3: promotion of secretion of extracellular vesicles, PS Capture exosome ELISA (anti-CD63); conditions: 24 hours, absorbance 450 nm minus 620 nm
Method: Mesenchymal stem cells derived from the human adipose tissue (#C-12977 manufactured by Takara Bio Inc.) were suspended in mesenchymal stem cell growth medium 2 (C-28009 manufactured by Takara Bio Inc.) so as to be 8×10^4 cells/1.8 mL, and seeded on a 6-well cell culture treatment plate (3516 manufactured by Corning Inc.). To the seeded mesenchymal stem cells derived from human adipose tissue was added 200 μL of the compound solution of each of Examples 1 to 8 diluted to 10-fold concentration with the mesenchymal stem cell growth medium 2, or mesenchymal stem cell growth medium alone (control), and after culturing for 24 hours, the culture solution was recovered. Subsequently, the recovered culture solution was centrifuged by 20,000×g at 4° C. for 60 minutes to prepare a culture solution from which cell fragments and Large Extracellular Vesicles were removed. For the detection of the extracellular vesicles, PS Capture (trademark) exosome ELISA kit (anti-mouse IgG POD) (#297-79201 manufactured by FUJIFILM Wako Pure Chemical Corporation) was used.
To Reaction/Washing Buffer (10×) diluted 10-fold with purified water was added 1/100 amount of Exosome Binding Enhancer (100×) to prepare a Reaction/Washing Buffer (1×). The culture solution prepared as mentioned above was diluted 5-fold with the Reaction/Washing Buffer (1×). After washing the Exosome Capture 96-well plate with 300 μL of the Reaction/Washing Buffer (1×) three times, 5-fold diluted each of the culture solution or mesenchymal stem cell growth medium alone in which no cell was cultured was added to each well, and the mixture was reacted at room temperature for 2 hours while shaking with a microplate shaker. After completion of the reaction, the reaction mixture was discarded, and after washing each well with 300 μL of the Reaction/Washing Buffer (1×) three times, 100 μL of Primary Antibody Anti-CD63 (×100) diluted 1,000-fold with the Reaction/Washing Buffer (1×) was added thereto, and the mixture was reacted at room temperature for 1 hour while shaking with a microplate shaker. After completion of the reaction, the reaction mixture was discarded, and after washing each well with 300 μL of the Reaction/Washing Buffer (1×) three times, 100 μL of the Secondary Antibody HRP-conjugated Anti-mouse IgG (100×) diluted 1,000-fold with the Reaction/Washing Buffer (1×) was added thereto, and the mixture was reacted at room temperature for 1 hour while shaking with a microplate shaker. After completion of the reaction, the reaction mixture was discarded, and after washing each well with 300 μL of the Reaction/Washing Buffer (1×) five times, 100 μL of TMB Solution was added, and after shaking for 1 minute with a microplate shaker, the mixture was reacted at room temperature for 30 minutes. After completion of the reaction, 100 μL of Stop Solution was added thereto, and after shaking with a microplate shaker for 5 seconds, the absorbance at 450 nm and 620 nm was measured with Enspire (manufactured by PerkinElmer), and the absorbance at 620 nm was subtracted from the absorbance at 450 nm for each well.

[2] = test system: mesenchymal stem cells derived from human umbilical cord matrix; assay: Test Example 8: cytotoxicity, LDH activity in culture solution
Method: (§1) Mesenchymal stem cells derived from human bone marrow or mesenchymal stem cells derived from human umbilical cord matrix (#C-12974, #C-12971 manufactured by Takara Bio Inc.) were suspended in mesenchymal stem cell growth medium 2 (C-28009 manufactured by Takara Bio Inc.) so as to be 8×10^4 cells/1.8 mL, and seeded on a 6-well cell culture treatment plate (3516 manufactured by Corning Inc.). To the seeded mesenchymal stem cells was added each 200 μL of the compounds of Examples 1 to 8 diluted to 10-fold concentration with the mesenchymal stem cell growth medium 2, and after culturing for 24 hours, the culture solution was recovered. The activity of lactate dehydrogenase (LDH) contained in the recovered culture solution was measured by using LDH Cytotoxicity Detection Kit (MK401 manufactured by Takara Bio Inc.). To a freeze-dried product of Solution A was added 1 mL of purified water to completely dissolve therein, then, 250 μL of Solution A and 11.25 mL of Solution B were mixed to prepare Solution C. To 100 μL of the recovered culture solution was added 100 μL of Solution C, and the mixture was reacted at room temperature for 30 minutes. Absorbance at 490 nm was measured using Enspire (manufactured by PerkinElmer). Based on the obtained measured values, a relative value when the compound untreated group (control) was set to 1 was calculated.

[3] = test system: mesenchymal stem cells derived from human bone marrow; assay: as above
Method: as §1

[4] = test system: mesenchymal stem cells derived from human umbilical cord matrix; assay: Test Example 9: cell proliferation activity (cell viability), CellTiter-Glo
Method: (§2) Mesenchymal stem cells derived from human bone marrow or mesenchymal stem cells derived from human umbilical cord matrix (#C-12974, #C-12971 manufactured by Takara Bio Inc.) were suspended in mesenchymal stem cell growth medium 2 (C-28009 manufactured by Takara Bio Inc.) so as to be 2×10^3 cells/90 μL, and seeded on a 96-well cell culture treatment plate (3585 manufactured by Corning Inc.). To the seeded mesenchymal stem cells was added each 10 μL of the compounds of Examples 1 to 8 diluted to 10-fold concentration with the mesenchymal stem cell growth medium 2, and the cells were cultured for 24 hours. Next, according to the following method, the number of living cells was measured using CellTiter-Glo (Registered Trademark) Luminescent Cell Viability Assay (G7570 manufactured by Promega).
(§3) CellTiter-Glo (Registered Trademark) Substrate was dissolved in CellTiter-Glo (Registered Trademark) Buffer. The prepared solution was added to each well with 100 μL/well, then, 100 μL thereof was apportioned to a 96-well cell culture treatment white plate (356701 manufactured by Corning Inc.), and luminescence was measured with Enspire (manufactured by PerkinElmer). A relative value when the compound untreated group (control) was set to 1 was calculated.

[5] = test system: mesenchymal stem cells derived from human bone marrow; assay: as above
Method: as §2, §3

[6] = 2 μM, 24 hours, LDH, 490 nm, control set to 1
[7] = 2 μM, 24 hours, CellTiter-Glo, control set to 1
[8] = 20 nM, 24 hours, LDH, 490 nm, control set to 1
[9] = 20 nM, 24 hours, CellTiter-Glo, control set to 1

SMILES | Difference in absorbance ([1]; Table 2, 2 μM) | Relative value of absorbance [2, 6] | Relative value of absorbance [3, 6] | Relative value of luminescence [4, 7] | Relative value of luminescence [5, 7] | Relative value of absorbance [2, 8] | Relative value of absorbance [3, 8] | Relative value of luminescence [4, 9] | Relative value of luminescence [5, 9] | other results
CC(=O)O.Cc1cc2c(C(C)C)c(O)c(O)c(C=O)c2c(O)c1-c1c(C)cc2c(C(C)C)c(O)c(O)c(C=O)c2c1O [Example 2, (S)-Gossypol Acetate] | 1.79 | 1.04 | 0.99 | 0.97 | 0.96 | – | – | – | – | –
Cc1cc2c(C(=O)NC[C@H](C)c3ccccc3)c(O)c(O)cc2c(O)c1-c1c(C)cc2c(C(=O)NC[C@H](C)c3ccccc3)c(O)c(O)cc2c1O [Example 8, Sabutoclax] | 1.41 | 1.15 | 1.01 | 1.00 | 0.93 | – | – | – | – | –
CC(=O)O.Cc1cc2c(C(C)C)c(O)c(O)c(C=O)c2c(O)c1-c1c(C)cc2c(C(C)C)c(O)c(O)c(C=O)c2c1O (racemic) [Example 1, (±)-Gossypol Acetate] | 1.97 | 0.78 | 0.93 | 0.97 | 0.91 | – | – | – | – | Difference in absorbance ([1]; Table 1, 2 μM): 2.15
COC1=CC(c2cc3ccccc3[nH]2)=N/C1=C\c1[nH]c(C)cc1C.CS(=O)(=O)O [Example 5, Obatoclax Mesylate] | – | – | – | – | – | 0.94 | 0.96 | 0.84 | 0.96 | Difference in absorbance ([1]; Table 1, 50 nM): 2.27
CCCCCCCCCCCc1ccc(/C=C2\N=C(c3ccc[nH]3)C=C2OC)[nH]1.Cl [Example 7, Undecylprodigiosin Hydrochloride] | – | – | – | – | – | 1.03 | 0.99 | 0.82 | 0.82 | Difference in absorbance ([1]; Table 2, 50 nM): 1.88
CCCCCC1=C/C(=C\c2[nH]c(-c3ccc[nH]3)cc2OC)N=C1C.Cl [Example 6, Prodigiosin Hydrochloride] | – | – | – | – | – | 0.97 | 0.93 | 0.78 | 0.92 | Difference in absorbance ([1]; Table 2, 50 nM): 2.38
Cc1cc2c(C(C)C)c(O)c(O)cc2c(O)c1-c1c(C)cc2c(C(C)C)c(O)c(O)cc2c1O [Example 3, (+)-Apogossypol] | 1.33 | – | – | – | – | – | – | – | – | Relative value of absorbance ([2]; human, 24 h, 2 μM): 1.06; Relative value of absorbance ([3]; human, 24 h, 2 μM): 0.99; Relative value of luminescence ([4]; human, 24 h, 2 μM): 1.01; Relative value of luminescence ([5]; human, 24 h, 2 μM): 1.00
Cc1cc2c(C(C)C)c(O)c(O)c(C=O)c2c(O)c1-c1c(C)cc2c(C(C)C)c(O)c(O)c(C=O)c2c1O [Example 4, (R)-(−)-Gossypol] | 1.51 | 0.88 | 0.97 | – | – | – | – | – | – | Relative value of luminescence ([4]; human, 24 h, 2 μM): 0.92; Relative value of luminescence ([5]; human, 24 h, 2 μM): 0.86
